≈ marks a conversion by molar mass, not a printed value. Where two headings read alike, the source gives them in different places.
Legend:
[1] = tested on: Gram-positive microorganisms; test: antimicrobial activity against Gram-positive microorganisms (in words); format: cell-based
Procedure: (§1) The antimicrobial activities of the compounds of the present invention were determined according to a standard process designated by the Japan Society of Chemotherapy and the minimum growth inhibitory concentrations (MIC) (μg/ml) the compounds were determined.

[2] = tested on: Gram-negative microorganisms; test: antimicrobial activity against Gram-negative microorganisms (in words); format: cell-based
Procedure: as §1

[3] = tested on: Str. faecalis, ATCC 19433; test: antimicrobial activity, MIC, standard process of Japan Society of Chemotherapy; format: cell-based; conditions: for minimum growth inhibitory concentration (MIC): Str. faecalis; for MIC: Enterococcus faecalis, ATCC19433, Str. faecalis, read-out: minimum growth inhibitory concentration (MIC)
Procedure: as §1

E. coli, NIHJ = test: as above; format: cell-based; conditions: for MIC: Escherichia coli, read-out: minimum growth inhibitory concentration (MIC)
Procedure: as §1

S. aureus, 209P = test: as above; format: cell-based; conditions: for MIC: Staphylococcus aureus, read-out: minimum growth inhibitory concentration (MIC)
Procedure: as §1

Pr. mirabilis, IF03849 = test: as above; format: cell-based; conditions: for minimum growth inhibitory concentration (MIC): Pr. mirabilis; for MIC: Proteus mirabilis, IF03849, Pr. mirabilis, read-out: minimum growth inhibitory concentration (MIC)
Procedure: as §1

Ps. cepacia, IID1340 = test: as above; format: cell-based; conditions: for minimum growth inhibitory concentration (MIC): Ps. cepacia; for MIC: Burkholderia cepacia, IID1340, Ps. cepacia, read-out: minimum growth inhibitory concentration (MIC)
Procedure: as §1

S. epidermidis, 56500 = test: as above; format: cell-based; conditions: for minimum growth inhibitory concentration (MIC): S. epidermidis; for MIC: Staphylococcus epidermidis, 56500, S. epidermidis, read-out: minimum growth inhibitory concentration (MIC)
Procedure: as §1

Str. pyogenes, G-36 = test: as above; format: cell-based; conditions: for minimum growth inhibitory concentration (MIC): Str. pyogenes; for MIC: Streptococcus pyogenes, G36, Str. pyogenes, read-out: minimum growth inhibitory concentration (MIC)
Procedure: as §1

Ser. marcescens, 13001 = test: as above; format: cell-based; conditions: for minimum growth inhibitory concentration (MIC): Ser. marcescens; for MIC: Serratia marcescens, 13001, Ser. marcescens, read-out: minimum growth inhibitory concentration (MIC)
Procedure: as §1

Pr. vulgaris, 3167 = test: as above; format: cell-based; conditions: for minimum growth inhibitory concentration (MIC): Pr. vulgaris; for MIC: Proteus vulgaris, 3167, Pr. vulgaris, read-out: minimum growth inhibitory concentration (MIC)
Procedure: as §1

Ps. aeruginosa, 2063 = test: as above; format: cell-based; conditions: for minimum growth inhibitory concentration (MIC): Ps. aeruginosa; for MIC: Pseudomonas aeruginosa, 2063, Ps. aeruginosa, read-out: minimum growth inhibitory concentration (MIC)
Procedure: as §1

Ps. maltophilia, IID1275 = test: as above; format: cell-based; conditions: for minimum growth inhibitory concentration (MIC): Ps. maltophilia; for MIC: Stenotrophomonas maltophilia, IID1275, Ps. maltophilia, read-out: minimum growth inhibitory concentration (MIC)
Procedure: as §1

Sh. flexneri, 2a5503 = test: as above; format: cell-based; conditions: for MIC: Shigella flexneri, read-out: minimum growth inhibitory concentration (MIC)
Procedure: as §1

Ps. aeruginosa, 2128 = test: as above; format: cell-based; conditions: for minimum growth inhibitory concentration (MIC): Ps. aeruginosa; for MIC: Pseudomonas aeruginosa, 2128, Ps. aeruginosa, read-out: minimum growth inhibitory concentration (MIC)
Procedure: as §1

[4] = tested on: Gram-negative microorganisms; conditions: in words, prior art discussion; cited from earlier work
[5] = tested on: Gram-positive microorganisms; conditions: in words, prior art discussion; cited from earlier work
physchem = format: physicochemical
Procedure: (§2) The water-solubility and acute toxicity of the compounds of the present invention and the comparative compounds, were measured. The results obtained are shown hereunder. The water-solubility was measured by the following method.
(i) Preparation of standard solution
About 400 μg of the sample to be measured was accurately weighed (the weight was defined as W μg), and 0.1N NaOH solution was added thereto to bring the whole volume to 50 ml. The UV absorbance of a given amount of the solution was measured and the measured absorbance was defined as A1.
(ii) Preparation of sample to be measured
Distilled water was added to the sample to be measured (fine powder) in such amount that the sample was not completely dissolved but suspended, and then the suspension was vigorously agitated at room temperature (between 23° and 26° C.) for 30 minutes. Insoluble matter of the sample was removed therefrom by filtration, after which 3 ml sample of the filtrate (satulated aqueous solution of the sample) was taken. 3 ml of 0.2N NaOH solution was added to the filtrate sample to bring the total volume to 6 ml (i.e. the filtrate was diluted to 50% concentration.) To 1 ml of the resulting solution, 0.1N NaOH solution was further added to bring the total volume to 25 ml […]. In this connection, degree of dilution was occasionally changed, depending on degree of UV absorbance. The UV absorbance of the given amount of the solution was measured and the resulting absorbance was defined to as A2. Where the number of dilution is N, water-solubility (s) is obtained from the following equation: [formula]

acute toxicity to mouse = format: in vivo; conditions: mouse, in vivo, iv; 200 mg/kg
Procedure: as §2
(§3) *200 mg/kg; i.v, (deaths/total number) As is obvious from the above

[6] = in words, prior art discussion; cited from earlier work
mouse = test: acute toxicity to mouse; format: in vivo; conditions: 200 mg/kg; i.v.
Procedure: as §2, §3

[7] = absorption after oral administration to rats; format: in vivo; conditions: rat, 20 mg/kg
Procedure: The compounds of the present invention and the comparative compound were orally given to rats (one group: 5 rats) at a dose of 20 mg/kg to measure the oral absorption of the compounds. The concentration of the compound in the blood of the rat was measured at 15 minutes, 30 minutes, and 1, 2, 3, 4, and 6 hours after administration.
Serum half lives (T1/2) were calculated as 0.693/Kel, where Kel is the elimination rate constant determined by linear regression analysis of the natural logarithm of serum concentration-time data. The area under the serum concentration-versus time curve from zero to 6 h (AUC0-6H) was calculated by the trapezoidal method, The results obtained are as follows: […]

Row | Compound | anti-microbial activity against Gram-positive microorganisms [1] | anti-microbial activity against Gram-negative microorganisms [2] | minimum growth inhibitory concentration (MIC) [3] | minimum growth inhibitory concentration (MIC) (E. coli, NIHJ) | minimum growth inhibitory concentration (MIC) (S. aureus, 209P) | minimum growth inhibitory concentration (MIC) (Pr. mirabilis, IF03849) | antimicrobial activity against Gram-negative microorganisms (prior art compounds) [4] | MIC [3] | MIC (E. coli, NIHJ) | MIC (S. aureus, 209P) | MIC (Pr. mirabilis, IF03849) | MIC (Ps. cepacia, IID1340) | MIC (Str. pyogenes, G-36) | MIC (Ser. marcescens, 13001) | MIC (Pr. vulgaris, 3167) | MIC (Ps. aeruginosa, 2063) | MIC (Ps. maltophilia, IID1275) | MIC (Sh. flexneri, 2a5503) | MIC (Ps. aeruginosa, 2128) | water-solubility (prior art compounds) [6] | further results
1 | CCn1cc(C(=O)O)c(=O)c2cc(F)c(N3CCC(C(C)N)C3)c(F)c21 (single isomer, unassigned) [Example 4, 7-[3-(1-Aminoethyl)-1-pyrrolidinyl]-1-ethyl-6,8-difluoro-1,4-dihydro-4-oxoquinoline-3-carboxylic acid] | extremely strong anti-microbial activity | extremely strong anti-microbial activity | ≤ 0.05 µg/mL | ≤ 0.05 µg/mL | ≤ 0.05 µg/mL | 0.20 µg/mL |  |  |  |  |  |  |  |  |  |  |  |  |  |  | minimum growth inhibitory concentration (MIC) (Ps. cepacia, IID1340): 0.78 µg/mL; minimum growth inhibitory concentration (MIC) (S. epidermidis, 56500): ≤ 0.05 µg/mL; minimum growth inhibitory concentration (MIC) (Str. pyogenes, G-36): ≤ 0.05 µg/mL; minimum growth inhibitory concentration (MIC) (Ser. marcescens, 13001): 0.10 µg/mL; minimum growth inhibitory concentration (MIC) (Pr. vulgaris, 3167): 0.05 µg/mL; minimum growth inhibitory concentration (MIC) (Ps. aeruginosa, 2063): 0.20 µg/mL; minimum growth inhibitory concentration (MIC) (Ps. maltophilia, IID1275): 0.39 µg/mL; minimum growth inhibitory concentration (MIC) (Sh. flexneri, 2a5503): ≤ 0.05 µg/mL; minimum growth inhibitory concentration (MIC) (Ps. aeruginosa, 2128): 0.10 µg/mL
2 | CCNCC1CCN(c2c(F)cc3c(=O)c(C(=O)O)cn(CC)c3c2F)C1 (stereo not drawn) [Compound C, 1-Ethyl-7-[3-(ethylamino)methyl]-1-pyrolidinyl-6,8-difluoro-1,4-dihydro-4-oxo-3-quinolinecarboxylic acid, reference compound] |  |  |  |  |  |  | a little weak | 0.39 µg/mL (≈ 1.03 µM) | ≤ 0.05 µg/mL | 0.1 µg/mL (≈ 0.264 µM) | 0.39 µg/mL (≈ 1.03 µM) | 1.56 µg/mL (≈ 4.11 µM) | 0.78 µg/mL (≈ 2.06 µM) | 0.2 µg/mL (≈ 0.527 µM) | 0.2 µg/mL (≈ 0.527 µM) | 0.78 µg/mL (≈ 2.06 µM) | 0.78 µg/mL (≈ 2.06 µM) | ≤ 0.05 µg/mL | 0.39 µg/mL (≈ 1.03 µM) | good water-solubility | antimicrobial activity against Gram-positive microorganisms (prior art compounds) [5]: strong antimicrobial activity; solubility at 0.5 h (physchem; distilled water, room temperature (23° to 26° C.), 30 minutes agitation, read-out: Water solubility): 400 µg/mL (≈ 1050 µM); mortality (acute toxicity to mouse): 50%; MIC (S. epidermidis, 56500): 0.39 µg/mL (≈ 1.03 µM)
3 | CC(N)C1CCN(c2c(F)cc3c(=O)c(C(=O)O)cn(C4CC4)c3c2F)C1 (single isomer, unassigned) [Example 2, 7-[3-(1-Aminoethyl)-1-pyrrolidinyl]-1-cyclopropyl-6,8-difluoro-1,4-dihydro-4-oxoquinoline-3-carboxylic acid] | extremely strong anti-microbial activity | extremely strong anti-microbial activity | ≤ 0.05 µg/mL | ≤ 0.05 µg/mL | ≤ 0.05 µg/mL | ≤ 0.05 µg/mL |  |  |  |  |  |  |  |  |  |  |  |  |  |  | minimum growth inhibitory concentration (MIC) (Ps. cepacia, IID1340): 0.39 µg/mL; minimum growth inhibitory concentration (MIC) (S. epidermidis, 56500): ≤ 0.05 µg/mL; minimum growth inhibitory concentration (MIC) (Str. pyogenes, G-36): ≤ 0.05 µg/mL; minimum growth inhibitory concentration (MIC) (Ser. marcescens, 13001): ≤ 0.05 µg/mL; minimum growth inhibitory concentration (MIC) (Pr. vulgaris, 3167): ≤ 0.05 µg/mL; minimum growth inhibitory concentration (MIC) (Ps. aeruginosa, 2063): 0.20 µg/mL; minimum growth inhibitory concentration (MIC) (Ps. maltophilia, IID1275): 0.10 µg/mL; minimum growth inhibitory concentration (MIC) (Sh. flexneri, 2a5503): ≤ 0.05 µg/mL; minimum growth inhibitory concentration (MIC) (Ps. aeruginosa, 2128): ≤ 0.05 µg/mL
4 | CCNCC1CCN(c2c(F)cc3c(=O)c(C(=O)O)cn(C4CC4)c3c2F)C1 (stereo not drawn) [Compound A, 1-cyclopropyl-6,8-difluoro-(3-ethylaminomethyl-1-pyrolidinyl)-1,4-dihydro-4-oxoquinoline-3-carboxylic acid, reference compound] |  |  |  |  |  |  | strong antimicrobial activity | 0.1 µg/mL (≈ 0.255 µM) | ≤ 0.05 µg/mL | ≤ 0.05 µg/mL | ≤ 0.05 µg/mL | 0.78 µg/mL (≈ 1.99 µM) | 0.1 µg/mL (≈ 0.255 µM) | 0.1 µg/mL (≈ 0.255 µM) | 0.1 µg/mL (≈ 0.255 µM) | 0.39 µg/mL (≈ 0.996 µM) | 0.39 µg/mL (≈ 0.996 µM) | ≤ 0.05 µg/mL | 0.2 µg/mL (≈ 0.511 µM) | extremely low water-solubility | solubility at 0.5 h (physchem; water): 40 µg/mL (≈ 102 µM); Acute toxicity to mouse (mouse): 3/5; MIC (S. epidermidis, 56500): ≤ 0.05 µg/mL
5 | CNCC1CCN(c2c(F)cc3c(=O)c(C(=O)O)cn(C4CC4)c3c2F)C1 (stereo not drawn) [Compound B, 1-cyclopropyl-6,8-difluoro-(3-methylaminomethyl-1-pyrolidinyl)-1,4-dihydro-4-oxoquinoline-3-carboxylic acid, reference compound] |  |  |  |  |  |  | strong antimicrobial activity | 0.1 µg/mL (≈ 0.265 µM) | ≤ 0.05 µg/mL | ≤ 0.05 µg/mL | ≤ 0.05 µg/mL | 1.56 µg/mL (≈ 4.13 µM) | 0.1 µg/mL (≈ 0.265 µM) | ≤ 0.05 µg/mL | ≤ 0.05 µg/mL | 0.2 µg/mL (≈ 0.53 µM) | 0.2 µg/mL (≈ 0.53 µM) | 0.1 µg/mL (≈ 0.265 µM) | 0.2 µg/mL (≈ 0.53 µM) | extremely low water-solubility | solubility at 0.5 h (physchem; water): 80 µg/mL (≈ 212 µM); half-life ([7]; serum half life, 0.693/Kel): 1.55 h; Cmax ([7]; serum, 5 rats per group): 1370 ng/mL; AUC(0-t) at 6 h ([7]; serum, zero to 6 h, trapezoidal method, read-out: AUC0-6H): 3610 ng·h/mL; Acute toxicity to mouse (mouse): 2/5

— patent publication US5416222A, “3-pyrrolidine methanamines wherein the alpha-carbon is substituted by 1 or 2 lower alkyl groups which are intermediates for pyridone-carboxylic acid derivatives” (Daiichi Seiyaku Co., Ltd., priority 1985, dated 1995)
